# Test results as given in article PMC3626250, “Effects of Borneol on Pharmacokinetics and Tissue Distribution of Notoginsenoside R1 and Ginsenosides Rg1 and Re in Panax notoginseng in Rabbits” (Journal of Analytical Methods in Chemistry, 2013).
# Read-outs that look alike come from different tables or passages of the source.
# Experiments:
# [1] = Tissue distribution study in rabbits after oral Panax notoginseng extract with or without Borneol; format: in vivo, New Zealand rabbits; conditions: New Zealand, rabbit; for Kp at 1 h: oral, Borneol combined with Panax notoginseng; for concentration at 0.5 h / concentration at 1 h / concentration at 3 h: po; for concentration at 3 h: 3 mL·kg^−1, 3.0 h
# Experimental: Frozen plasma and tissue samples were thawed in a water bath at 37°C and were then vortexed followed by centrifuging at 5000 r·min^−1 for 5 min. An aliquot of 1.0 mL of the supernatant from each sample was loaded onto C18 Bond Elute Solid phase extraction (SPE) cartridges (1000 mg, 1 cc reservoir, Varian, Harbor City, CA, USA) pretreated with 2.0 mL hexane, isopropanol, methanol, and water, sequentially. The SPE cartridges were then washed with 1.0 mL water, 20% methanol/water solution, 40% methanol/water solution, and 60% methanol/water solution, sequentially. Finally, analytes were eluted twice with 1.0 mL of 70% methanol/water solution. The eluant was evaporated to dryness under nitrogen. The residues were then reconstituted in 1.0 mL mobile phase. An aliquot of 10 μL was injected into the LC-MS system.
# One group of rabbits (n = 18) was orally administered a dose of 3.0 mL·kg^−1 Panax notoginseng extract, while another group of rabbits (n = 18) was orally given 3.0 mL·kg^−1 Panax notoginseng extract combined with Borneol. At 0.5, 1, and 3 h after administration, blood samples were collected from the central ear artery of six rabbits from each group, and the heart, liver, lung, kidney, and brain were immediately removed after animals were sacrificed by decapitation. An accurately weighed amount of tissue (1 g) was collected to be rinsed, dried, minced, and homogenized (400 r·min^−1) in normal saline (1.5 mL). All of the samples were stored at −70°C and were processed prior to analysis with the proposed method as described in Section 2.6.
# [2] = Transport studies across Caco-2 monolayers (P app, efflux ratio); format: in vitro ADME; conditions: human
# Experimental: Medium was replaced every 2-3 days. […] The vinblastine-selected Caco-2 cells were cultivated in the presence of 10 nM vinblastine to induce P-glycoprotein (P-gp) expression. […] Prior to the transport study, cytotoxicity of NGR1, GRg1, GRe, and Borneol toward Caco-2 cells was determined using MTT assays.
# In transport studies, vinblastine-selected Caco-2 cells were seeded on polycarbonate filter of transwells for 18–21 days before starting transport study, and the monolayers with the transepithelial electrical resistance (TEER) values greater than 300 Ωcm^2 were used. Caco-2 monolayers were rinsed twice with Hanks' balanced salt solution (HBSS) and preincubated in HBSS at 37°C for 30 min before starting experiments. To start the experiments, 500 μM of NGR1, GRg1, and GRe in final concentrations were added to the donor side with or without 200 μM Borneol and then incubated at 37°C. […] After each sampling, 0.1 mL of HBSS was added to the receiver chamber to maintain a constant volume. All the experiments were performed five times in duplicate. The collected samples were stored at −20°C until HPLC analysis. During the above transport studies, the TEER values were also monitored before and at the end of each experiment. Apparent permeability coefficients (P app) were then calculated according to the following equation: (1) Papp=(dC/dt×V)/(A×C0), where dC/dt is the rate of the test compound appearing in the receiver chamber, V is the volume of the solution in the receiver chamber, A is the cell monolayer surface area, and C 0 is the initial concentration of the test compound added in the donor chamber.
# The efflux ratio (Er) was calculated using the following equation: (2) Er=Papp(basolateral-apical)/Papp(apical-basolateral).
# Caco-2 cells = assay: MTT cytotoxicity assay toward Caco-2 cells; format: cell-based; conditions: chosen for transport study
# Experimental: The Caco-2 cells were cultured in Dulbecco's modified Eagle's medium (DMEM) supplemented with 20% foetal bovine serum, 1% nonessential amino acids and penicillin-streptomycin, at 37°C in an atmosphere with a relative humidity of 95% and a CO2 flow of 5%. Medium was replaced every 2-3 days. When the cell monolayer reached 80% confluence, the cells were detached with a solution of 0.02% EDTA and 0.25% trypsin. The vinblastine-selected Caco-2 cells were cultivated in the presence of 10 nM vinblastine to induce P-glycoprotein (P-gp) expression. The culture medium was changed to a fresh medium without vinblastine 24 h before experiments, and the cells were used between passages 25 and 46. Prior to the transport study, cytotoxicity of NGR1, GRg1, GRe, and Borneol toward Caco-2 cells was determined using MTT assays. Noncytotoxic concentrations of 500 μM NGR1, GRg1, GRe, and 200 μM Borneol (dissolved in DMSO) were chosen for transport study.
structure (smiles),measurement,setting,value
"CC(C)=CCC[C@](C)(O[C@@H]1O[C@H](CO)[C@@H](O)[C@H](O)[C@H]1O)[C@H]1CC[C@]2(C)[C@@H]1[C@H](O)C[C@@H]1[C@@]3(C)CC[C@H](O)C(C)(C)[C@@H]3[C@@H](O[C@@H]3O[C@H](CO)[C@@H](O)[C@H](O)[C@H]3O)C[C@]12C [GRg1, ginsenoside Rg1]",Kp at 1 h,"[1]; brain, peak levels at 1.0 h, read-out: level in brain, fold higher than the plasma concentrations",11.8
same,concentration at 0.5 h,"[1]; brain, 3 mL·kg^−1, 0.5 h, oral Panax notoginseng with Borneol, read-out: Concentration in brain",20600 ± 1360 ng/g
same,concentration at 0.5 h,"[1]; brain, 3 mL·kg^−1, 0.5 h, oral Panax notoginseng, read-out: Concentration in brain",750 ± 110 ng/g
same,concentration at 1 h,"[1]; brain, 3 mL·kg^−1, 1.0 h, oral Panax notoginseng, read-out: Concentration in brain",910 ± 890 ng/g
same,concentration at 3 h,"[1]; brain, oral Panax notoginseng with Borneol, read-out: Concentration in brain",17900 ± 2600 ng/g
same,concentration at 3 h,"[1]; brain, oral Panax notoginseng, read-out: Concentration in brain",570 ± 200 ng/g
same,concentration at 1 h,"[1]; brain, 1.0 h, oral Panax notoginseng with Borneol, read-out: Concentration in brain",25700 ± 2690 ng/g
same,Kp at 1 h,"[1]; heart, peak levels at 1.0 h, read-out: level in heart, fold higher than the plasma concentrations",12.4
same,concentration at 0.5 h,"[1]; heart, 3 mL·kg^−1, 0.5 h, oral Panax notoginseng with Borneol, read-out: Concentration in heart",22600 ± 360 ng/g
same,concentration at 0.5 h,"[1]; heart, 3 mL·kg^−1, 0.5 h, oral Panax notoginseng, read-out: Concentration in heart",2210 ± 760 ng/g
same,concentration at 1 h,"[1]; heart, 3 mL·kg^−1, 1.0 h, oral Panax notoginseng, read-out: Concentration in heart",2940 ± 240 ng/g
same,concentration at 3 h,"[1]; heart, oral Panax notoginseng with Borneol, read-out: Concentration in heart",19100 ± 1160 ng/g
same,concentration at 3 h,"[1]; heart, oral Panax notoginseng, read-out: Concentration in heart",1530 ± 450 ng/g
same,concentration at 1 h,"[1]; heart, 1.0 h, oral Panax notoginseng with Borneol, read-out: Concentration in heart",27000 ± 310 ng/g
same,Kp at 1 h,"[1]; kidney, at 1.0 h, read-out: level in kidney, fold higher than the plasma concentrations",7.77
same,concentration at 0.5 h,"[1]; kidney, 3 mL·kg^−1, 0.5 h, oral Panax notoginseng with Borneol, read-out: Concentration in kidney",27540 ± 170 ng/g
same,concentration at 0.5 h,"[1]; kidney, 3 mL·kg^−1, 0.5 h, oral Panax notoginseng, read-out: Concentration in kidney",4050 ± 260 ng/g
same,concentration at 1 h,"[1]; kidney, 3 mL·kg^−1, 1.0 h, oral Panax notoginseng, read-out: Concentration in kidney",3670 ± 380 ng/g
same,concentration at 3 h,"[1]; kidney, oral Panax notoginseng with Borneol, read-out: Concentration in kidney",10200 ± 2770 ng/g
same,concentration at 3 h,"[1]; kidney, oral Panax notoginseng, read-out: Concentration in kidney",3030 ± 230 ng/g
same,concentration at 1 h,"[1]; kidney, 1.0 h, oral Panax notoginseng with Borneol, read-out: Concentration in kidney",16900 ± 810 ng/g
same,Kp at 1 h,"[1]; liver, peak levels at 1.0 h, read-out: level in liver, fold higher than the plasma concentrations",27.1
same,concentration at 0.5 h,"[1]; liver, 3 mL·kg^−1, 0.5 h, oral Panax notoginseng with Borneol, read-out: Concentration in liver",50100 ± 1950 ng/g
same,concentration at 0.5 h,"[1]; liver, 3 mL·kg^−1, 0.5 h, oral Panax notoginseng, read-out: Concentration in liver",8480 ± 530 ng/g
same,concentration at 1 h,"[1]; liver, 3 mL·kg^−1, 1.0 h, oral Panax notoginseng, read-out: Concentration in liver",8850 ± 510 ng/g
same,concentration at 3 h,"[1]; liver, oral Panax notoginseng with Borneol, read-out: Concentration in liver",37800 ± 3430 ng/g
same,concentration at 3 h,"[1]; liver, oral Panax notoginseng, read-out: Concentration in liver",6180 ± 590 ng/g
same,concentration at 1 h,"[1]; liver, 1.0 h, oral Panax notoginseng with Borneol, read-out: Concentration in liver",59000 ± 3740 ng/g
same,Kp at 1 h,"[1]; lung, peak levels at 1.0 h, read-out: level in lung, fold higher than the plasma concentrations",8.17
same,concentration at 0.5 h,"[1]; lung, 3 mL·kg^−1, 0.5 h, oral Panax notoginseng with Borneol, read-out: Concentration in lung",15100 ± 3240 ng/g
same,concentration at 0.5 h,"[1]; lung, 3 mL·kg^−1, 0.5 h, oral Panax notoginseng, read-out: Concentration in lung",14300 ± 430 ng/g
same,concentration at 1 h,"[1]; lung, 3 mL·kg^−1, 1.0 h, oral Panax notoginseng, read-out: Concentration in lung",15300 ± 640 ng/g
same,concentration at 3 h,"[1]; lung, oral Panax notoginseng with Borneol, read-out: Concentration in lung",12300 ± 1460 ng/g
same,concentration at 3 h,"[1]; lung, oral Panax notoginseng, read-out: Concentration in lung",11900 ± 710 ng/g
same,concentration at 1 h,"[1]; lung, 1.0 h, oral Panax notoginseng with Borneol, read-out: Concentration in lung",17800 ± 1250 ng/g
same,concentration at 0.5 h,"[1]; plasma, 3 mL·kg^−1, 0.5 h, oral Panax notoginseng, read-out: Concentration in plasma",1970 ± 160 ng/mL
same,concentration at 1 h,"[1]; plasma, 3 mL·kg^−1, 1.0 h, oral Panax notoginseng, read-out: Concentration in plasma",1990 ± 60 ng/mL
same,concentration at 3 h,"[1]; plasma, oral Panax notoginseng with Borneol, read-out: Concentration in plasma",920 ± 10 ng/mL
same,concentration at 3 h,"[1]; plasma, oral Panax notoginseng, read-out: Concentration in plasma",980 ± 10 ng/mL
same,concentration at 0.5 h,"[1]; plasma, 0.5 h, oral Panax notoginseng with Borneol, read-out: Concentration in plasma",2870 ± 60 ng/mL
same,concentration at 1 h,"[1]; plasma, 1.0 h, oral Panax notoginseng with Borneol, read-out: Concentration in plasma",2180 ± 90 ng/mL
same,"efflux ratio at 120 min, 500 μM","[2]; Caco-2, Caco-2 monolayers, read-out: efflux ratios (Er)",1 to 1.1
same,"efflux ratio at 120 min, 500 μM","[2]; Caco-2, efflux ratio P app(basolateral-apical)/P app(apical-basolateral), with or without 200 μM Borneol (see label), read-out: E r",1.05
same,"Papp A→B at 120 min, 500 μM","[2]; Caco-2 Model, 500 μM compound, with or without 200 μM Borneol (see label), read-out: P app (apical to basolateral)",0.348 ± 0.042 ×10⁻⁶ cm/s
same,"Papp B→A at 120 min, 500 μM","[2]; Caco-2 Model, 500 μM compound, with or without 200 μM Borneol (see label), read-out: P app (basolateral to apical)",0.364 ± 0.029 ×10⁻⁶ cm/s
same,Noncytotoxic concentration,Caco-2 cells,500 µM
